# Laboratory results: US20230117034A1, “PYRAZOLOTRIAZINES” (Bayer Aktiengesellschaft, priority 2019, published 2023)
# pIC50: −log10 of the molar value.
# Biological target: CDK12/CycK (Homo sapiens, UniProt Q9NYV4)
# Assay: CDK12/CycK high ATP kinase assay (TR-FRET, 2 mM ATP)
# Format: biochemical
# Conditions: 2 mM ATP (high ATP); median; read-out: CDK12/CyclinK, 2 mM ATP (high ATP), IC50-[mol/l] (median)
# In short: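 Read-out is TR-FRET (Eu-anti-rabbit IgG, anti-phospho-c-Myc Ser62 antibody, streptavidin-XL665) after EDTA stop. Reaction ran 60 min at 22 °C using 1 µM biotin-peptide and high ATP (2 mM) with roughly 0.75 nM recombinant CDK12/CycK, after 15 min compound pre-binding; normalised emission ratios yield IC50.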
# Sequence of CDK12/CycK (Q9NYV4 with tags, fused parts or gaps): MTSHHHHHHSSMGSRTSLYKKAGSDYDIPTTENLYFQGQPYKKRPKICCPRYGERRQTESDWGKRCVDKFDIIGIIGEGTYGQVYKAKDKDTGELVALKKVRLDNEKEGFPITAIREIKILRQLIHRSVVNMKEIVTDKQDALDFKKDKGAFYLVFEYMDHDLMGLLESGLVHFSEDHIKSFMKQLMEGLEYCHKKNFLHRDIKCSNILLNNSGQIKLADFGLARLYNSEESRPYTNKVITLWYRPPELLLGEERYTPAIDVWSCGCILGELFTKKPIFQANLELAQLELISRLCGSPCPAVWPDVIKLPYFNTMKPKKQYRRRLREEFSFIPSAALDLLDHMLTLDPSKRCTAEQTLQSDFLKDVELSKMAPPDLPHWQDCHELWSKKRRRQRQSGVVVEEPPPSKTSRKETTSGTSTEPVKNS
# Sequence of CDK12/CycK (O75909 1-300 partner limits assumed): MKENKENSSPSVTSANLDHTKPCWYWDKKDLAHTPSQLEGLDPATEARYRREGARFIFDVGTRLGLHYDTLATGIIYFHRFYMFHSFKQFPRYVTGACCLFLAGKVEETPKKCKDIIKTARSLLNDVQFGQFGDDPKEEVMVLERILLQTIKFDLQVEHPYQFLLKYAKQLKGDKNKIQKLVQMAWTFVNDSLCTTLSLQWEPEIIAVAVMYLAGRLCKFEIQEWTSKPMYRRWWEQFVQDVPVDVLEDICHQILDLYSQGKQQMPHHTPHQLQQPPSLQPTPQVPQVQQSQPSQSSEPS
row,SMILES,pIC50
1,"Cc1cnn2c(NCc3nc4ccccc4[nH]3)nc(N3CC4CCC(C3)N4)nc12 [Example 401, N-[(1H-benzimidazol-2-yl)methyl]-2-(3,8-diazabicyclo[3.2.1]octan-3-yl)-8-methylpyrazolo[1,5-a][1,3,5]triazin-4-amine]",< 4.70
2,"CN(CC(C)(C)O)c1nc(NCc2nc3c(F)c(F)ccc3[nH]2)n2ncc(C(F)(F)F)c2n1 [Example 402, 1-{[4-{[(4,5-difluoro-1H-benzimidazol-2-yl)methyl]amino}-8-(trifluoromethyl)pyrazolo[1,5-a][1,3,5]triazin-2-yl](methyl)amino}-2-methylpropan-2-ol]",6.65
3,"COC(C)(C)COc1nc(NCc2nc3ccccc3[nH]2)n2ncc(Br)c2n1 [Example 403, N-[(1H-benzimidazol-2-yl)methyl]-8-bromo-2-(2-methoxy-2-methylpropoxy)pyrazolo[1,5-a][1,3,5]triazin-4-amine]",< 4.70
4,"Brc1cnn2c(NCc3nc4ccccc4[nH]3)nc(OC3CCCCC3)nc12 [Example 406, N-[(1H-benzimidazol-2-yl)methyl]-8-bromo-2-(cyclohexyloxy)pyrazolo[1,5-a][1,3,5]triazin-4-amine]",< 4.70
5,"Fc1ccc2[nH]c(CNc3nc(N4CCN5CCC4CC5)nc4c(C(F)(F)F)cnn34)nc2c1F [Example 407, 2-(1,4-diazabicyclo[3.2.2]nonan-4-yl)-N-[(4,5-difluoro-1H-benzimidazol-2-yl)methyl]-8-(trifluoromethyl)pyrazolo[1,5-a][1,3,5]triazin-4-amine]",6.15
6,"Brc1cnn2c(NCc3nc4ccccc4[nH]3)nc(OCC3CC3)nc12 [Example 408, N-[(1H-benzimidazol-2-yl)methyl]-8-bromo-2-(cyclopropylmethoxy)pyrazolo[1,5-a][1,3,5]triazin-4-amine]",< 4.70
7,"CC(C)COc1nc(NCc2nc3ccccc3[nH]2)n2ncc(Br)c2n1 [Example 409, N-[(1H-benzimidazol-2-yl)methyl]-8-bromo-2-(2-methylpropoxy)pyrazolo[1,5-a][1,3,5]triazin-4-amine]",< 4.80
8,"Brc1cnn2c(NCc3nc4ccccc4[nH]3)nc(OC3CCNCC3)nc12 [Example 411, N-[(1H-benzimidazol-2-yl)methyl]-8-bromo-2-[(piperidin-4-yl)oxy]pyrazolo[1,5-a][1,3,5]triazin-4-amine]",< 4.70
9,"Fc1ccc2[nH]c(CNc3nc(N4CCOCC4)nc4c(-c5nccs5)cnn34)nc2c1F [Example 413, N-[(4,5-difluoro-1H-benzimidazol-2-yl)methyl]-2-(morpholin-4-yl)-8-(1,3-thiazol-2-yl)pyrazolo [1,5-a][1,3,5]triazin-4-amine]",< 4.70
10,"CN1CCN(c2nc(NCc3nc4c(F)c(F)ccc4[nH]3)n3ncc(-c4nccs4)c3n2)CC1 [Example 415, N-[(4,5-difluoro-1H-benzimidazol-2-yl)methyl]-2-(4-methylpiperazin-1-yl)-8-(1,3-thiazol-2-yl)pyrazolo[1,5-a][1,3,5]triazin-4-amine]",< 4.70
11,"COc1cccc2nc(CNc3nc(N4CCN(C)CC4)nc4c(-c5nccs5)cnn34)[nH]c12 [Example 416, N-[(7-methoxy-1H-benzimidazol-2-yl)methyl]-2-(4-methylpiperazin-1-yl)-8-(1,3-thiazol-2-yl)pyrazolo[1,5-a][1,3,5]triazin-4-amine]",< 4.70
12,"Cn1cc(-c2cnn3c(NCc4nc5cc(Cl)c(Cl)cc5[nH]4)nc(N4CCOCC4)nc23)cn1 [Example 419, N-[(5,6-dichloro-1H-benzimidazol-2-yl)methyl]-8-(1-methyl-1H-pyrazol-4-yl)-2-(morpholin-4-yl)pyrazolo[1,5-a][1,3,5]triazin-4-amine]",< 4.70
13,"FC(F)n1cc(-c2cnn3c(NCc4nc5ccccc5[nH]4)nc(N4CCOCC4)nc23)cn1 [Example 421, N-[(1H-benzimidazol-2-yl)methyl]-8-[1-(difluoromethyl)-1H-pyrazol-4-yl]-2-(morpholin-4-yl)pyrazolo[1,5-a][1,3,5]triazin-4-amine]",5.07
14,"FC(F)n1cc(-c2cnn3c(NCc4nc5cc(Cl)c(Cl)cc5[nH]4)nc(N4CCOCC4)nc23)cn1 [Example 423, N-[(5,6-dichloro-1H-benzimidazol-2-yl)methyl]-8-[1-(difluoromethyl)-1H-pyrazol-4-yl]-2-(morpholin-4-yl)pyrazolo[1,5-a][1,3,5]triazin-4-amine]",< 4.89
15,"Clc1cc2nc(CNc3nc(N4CCOCC4)nc4c(-c5cscn5)cnn34)[nH]c2cc1Cl [Example 424, N-[(5,6-dichloro-1H-benzimidazol-2-yl)methyl]-2-(morpholin-4-yl)-8-(1,3-thiazol-4-yl)pyrazolo [1,5-a][1,3,5]triazin-4-amine]",< 4.70
16,"Fc1ccc2[nH]c(CNc3nc(N4CCOCC4)nc4c(CC(F)F)cnn34)nc2c1F.O=C(O)C(F)(F)F [Example 425, trifluoroacetic acid N-[(4,5-difluoro-1H-benzimidazol-2-yl)methyl]-8-(2,2-difluoroethyl)-2-(morpholin-4-yl)pyrazolo[1,5-a][1,3,5]triazin-4-amine]",5.67
17,"FC(F)(F)c1cnn2c(NCc3nnc(-c4ccccc4)[nH]3)nc(N3CCOCC3)nc12 [Example 427, 2-(morpholin-4-yl)-N-[(5-phenyl-4H-1,2,4-triazol-3-yl)methyl]-8-(trifluoromethyl)pyrazolo[1,5-a][1,3,5]triazin-4-amine]",5.73
18,"CN1CCN(c2nc(NCc3nc4ccccc4[nH]3)n3ncc(C4CC4(F)F)c3n2)CC1 (stereo not shown) [Example 428, N-(1H-benzimidazol-2-ylmethyl)-8-(2,2-difluorocyclopropyl)-2-(4-methylpiperazin-1-yl)pyrazolo[1,5-a][1,3,5]triazin-4-amine]",< 4.70
19,"COc1ccccc1-c1nnc(CNc2nc(N3CCN(C)CC3)nc3c(C4CC4(F)F)cnn23)[nH]1 (stereo not shown) [Example 430, 8-(2,2-difluorocyclopropyl)-N-{[5-(2-methoxyphenyl)-4H-1,2,4-triazol-3-yl]methyl}-2-(4-methylpiperazin-1-yl)pyrazolo[1,5-a][1,3,5]triazin-4-amine]",< 4.70
20,"CCc1cnn2c(NCc3nc4ccccc4[nH]3)nc(N3CCOCC3)nc12 [Example 431, N-[(1H-benzimidazol-2-yl)methyl]-8-ethyl-2-(morpholin-4-yl)pyrazolo[1,5-a][1,3,5]triazin-4-amine]",5.55
21,"CCc1cnn2c(NCc3nc4c(F)c(F)ccc4[nH]3)nc(N3CCOCC3)nc12 [Example 432, N-[(4,5-difluoro-1H-benzimidazol-2-yl)methyl]-8-ethyl-2-(morpholin-4-yl)pyrazolo[1,5-a][1,3,5]triazin-4-amine]",5.64

# Continued, values first:
row,pIC50,SMILES
1,< 4.70,"Brc1cnn2c(NCc3nc4ccccc4[nH]3)nc(OCCN3CCCC3)nc12 [Example 404, N-[(1H-benzimidazol-2-yl)methyl]-8-bromo-2-[2-(pyrrolidin-1-yl)ethoxy]pyrazolo[1,5-a][1,3,5]triazin-4-amine]"
2,< 4.70,"Brc1cnn2c(NCc3nc4ccccc4[nH]3)nc(OC3CCOCC3)nc12 [Example 405, N-[(1H-benzimidazol-2-yl)methyl]-8-bromo-2-[(oxan-4-yl)oxy]pyrazolo[1,5-a][1,3,5]triazin-4-amine]"
3,5.80,"Fc1cccc2[nH]c(CNc3nc(N4CCN5CCC4CC5)nc4c(C(F)(F)F)cnn34)nc12 [Example 410, 2-(1,4-diazabicyclo[3.2.2]nonan-4-yl)-N-[(4-fluoro-1H-benzimidazol-2-yl)methyl]-8-(trifluoromethyl)pyrazolo[1,5-a][1,3,5]triazin-4-amine]"
4,< 5.24,"NCCOCCOCCNc1nc(NCc2nc3ccccc3[nH]2)n2ncc(Br)c2n1 [Example 412, N2-{2-[2-(2-aminoethoxy)ethoxy]ethyl}-N4-[(1H-benzimidazol-2-yl)methyl]-8-bromopyrazolo[1,5-a][1,3,5]triazine-2,4-diamine]"
5,< 5.24,"COc1cccc2[nH]c(CNc3nc(N4CCOCC4)nc4c(-c5nccs5)cnn34)nc12 [Example 414, N-[(4-methoxy-1H-benzimidazol-2-yl)methyl]-2-(morpholin-4-yl)-8-(1,3-thiazol-2-yl)pyrazolo [1,5-a][1,3,5]triazin-4-amine]"
6,< 5.11,"Fc1ccc2[nH]c(CNc3nc(N4CCOCC4)nc4c(-c5ccnnc5)cnn34)nc2c1F [Example 417, N-[(4,5-difluoro-1H-benzimidazol-2-yl)methyl]-2-(morpholin-4-yl)-8-(pyridazin-4-yl)pyrazolo[1,5-a][1,3,5]triazin-4-amine]"
7,< 4.70,"Cn1cc(-c2cnn3c(NCc4nc5c(F)c(F)ccc5[nH]4)nc(N4CCOCC4)nc23)cn1 [Example 418, N-[(4,5-difluoro-1H-benzimidazol-2-yl)methyl]-8-(1-methyl-1H-pyrazol-4-yl)-2-(morpholin-4-yl)pyrazolo[1,5-a][1,3,5]triazin-4-amine]"
8,< 4.70,"CN1CCN(c2nc(NCc3nc4cc(Cl)c(Cl)cc4[nH]3)n3ncc(-c4cnn(C)c4)c3n2)CC1 [Example 420, N-[(5,6-dichloro-1H-benzimidazol-2-yl)methyl]-2-(4-methylpiperazin-1-yl)-8-(1-methyl-1H-pyrazol-4-yl)pyrazolo[1,5-a][1,3,5]triazin-4-amine]"
9,7.62,"Fc1ccc2[nH]c(CNc3nc(N4CCOCC4)nc4c(C(F)(F)F)cnn34)nc2c1F [Example 426, N-[(4,5-difluoro-1H-benzimidazol-2-yl)methyl]-2-(morpholin-4-yl)-8-(trifluoromethyl)pyrazolo [1,5-a][1,3,5]triazin-4-amine]"
10,< 4.70,"CN1CCN(c2nc(NCc3nc4c(F)c(F)ccc4[nH]3)n3ncc(C4CC4(F)F)c3n2)CC1 (stereo not shown) [Example 429, N-[(4,5-difluoro-1H-benzimidazol-2-yl)methyl]-8-(2,2-difluorocyclopropyl)-2-(4-methylpiperazin-1-yl)pyrazolo[1,5-a][1,3,5]triazin-4-amine]"
